Data taken from patent US8034931B2, “Process for producing substituted aminoquinazolinone derivative, intermediate therefor, and pest control agent” (Nihon Nohyaku Co., Ltd., priority 2003, dated 2011).

Legend:
Format in all cases: in vivo
[1] = system: White Peach Scale (Pseudaulacaspis pentagona); experiment: Insecticidal effect on white peach scale, sprayed potato tuber (Test Examples 3 and 5); details: 100 ppm liquid chemical, potato tuber with first-instar larvae, fourteen days after the treatment
Text: Insecticidal Effect on White Peach Scale (Pseudaulacaspis pentagona)
A preparation containing each compound of the present invention listed in Tables 2 to 4 or each comparative compound as an active ingredient was dispersed in and diluted with water to obtain a 100 ppm liquid chemical. A potato tuber with first-instar larvae of white peach scale as parasites was sprayed with the liquid chemical with a spray gun. Fourteen days after the treatment, the living insects were counted. In the same manner as in Test Example 2, the corrected mortality was calculated and the insecticidal effect was judged.
Insecticidal Effect on White Peach Scale (Pseudaulacaspis pentagona) at a Low Dosage
The same test as in Test Example 3 was carried out except for changing the concentration of the liquid chemical to 30 ppm.

[2] = system: Greenhouse Whitefly (Trialeuroddes vaporariorum); experiment: Insecticidal effect on greenhouse whitefly, sprayed tomato leaf (Test Examples 2 and 4); details: for Test Example 4: controlling effect at a low dosage (corrected mortality): 3 ppm liquid chemical, otherwise same as Test Example 2; for Test Example 2: insecticidal effect (corrected mortality): 100 ppm liquid chemical, sprayed tomato leaf, 20 adult whiteflies, four days after the inoculation
Text: Insecticidal Effect on Greenhouse Whitefly (Trialeuroddes vaporariorum)
A preparation containing each compound of the present invention listed in Tables 2 to 4 or each comparative compound as an active ingredient was dispersed in and diluted with water to obtain a 100 ppm liquid chemical. A tomato leaf set in a 20-ml vial with its stalk immersed in water was sprayed with the liquid chemical with a spray gun on a turntable. After air-dryness, the treated leaf was placed in a glass cylinder and inoculated with 20 adult greenhouse whiteflies. After the treatment, the glass cylinder was placed in a greenhouse. Four days after the inoculation, the living insects were counted. The corrected mortality was calculated according to the following equation and the insecticidal effect was judged according to the criterion shown below.
[formula] Criterion for Judgment:
Insecticidal Effect on Greenhouse (Trialeuroddes vaporariorum) at a Low Dosage
The same test as in Test Example 2 was carried out except for changing the concentration of the liquid chemical to 3 ppm.

[3] = system: Green Peach Aphid (Myzus persicae); experiment: Insecticidal effect on green peach aphid, foliar spray on potted Chinese cabbage (Test Example 1); details: 500 ppm liquid chemical, sprayed on Chinese cabbage stalks and leaves, six days after the spraying
Text: Insecticidal Effect on Green Peach Aphid (Myzus persicae)
A Chinese cabbage plant was planted in each of plastic pots with a diameter of 8 cm and a height of 8 cm, and green peach aphids were propagated on the plant, after which the parasites in each pot were counted. A preparation containing each compound of the present invention listed in Tables 2 to 4 or each comparative compound as an active ingredient was dispersed in and diluted with water to obtain a 500 ppm liquid chemical. The stalks and leaves of the potted Chinese cabbage plants were sprayed with the liquid chemical and air-dried, and then the pots were stored in a greenhouse. Six days after the spraying, green peach aphids parasitic on each Chinese cabbage plant were counted and the control efficacy was calculated by the following equation, whereby the insecticidal effect was judged according to the criterion shown below. Control efficacy=100−{(T×Ca)/(Ta×C)}×100 • Ta: number of parasites before spraying in treated group, • T: number of parasites after spraying in treated group, • Ca: number of parasites before spraying in untreated group, • C: number of parasites after spraying in untreated group.

SMILES	Test Example 3: insecticidal effect (corrected mortality) [1]	Test Example 4: controlling effect at a low dosage (corrected mortality) [2]	Test Example 2: insecticidal effect (corrected mortality) [2]	Test Example 1: insecticidal effect (control efficacy) [3]
CC(=O)N1C(=O)N(N=Cc2cccnc2)Cc2ccccc21 [A, 1-acetyl-3-(3-pyridylmethylideneamino)-3,4-dihydro-2(1H)-quinazolinone, reference compound]	B (Corrected mortality 99-90%)	C (Corrected mortality 89-80%)	A (Corrected mortality 100%)	A (Control efficacy 100%)
CC(=O)N1C(=O)N(NCc2cccnc2)Cc2cc(Br)ccc21 [B, 1-acetyl-3-(3-pyridylmethylamino)-3,4-dihydro-6-bromo-2(1H)-quinazolinone, reference compound]	C (Corrected mortality 89-80%)	D (Corrected mortality 79-50%)	C (Corrected mortality 89-80%)	A (Control efficacy 100%)
CCN1C(=O)N(N=Cc2cccnc2)Cc2cc(C(F)(C(F)(F)F)C(F)(F)F)ccc21 [compound 2]	A (Corrected mortality 100%)	–	A (Corrected mortality 100%)	A (Control efficacy 100%)
COCN1C(=O)N(N=Cc2cccnc2)Cc2cc(C(F)(C(F)(F)F)C(F)(F)F)ccc21 [compound 4]	A (Corrected mortality 100%)	–	A (Corrected mortality 100%)	A (Control efficacy 100%)
CCOCN1C(=O)N(N=Cc2cccnc2)Cc2cc(C(F)(C(F)(F)F)C(F)(F)F)ccc21 [compound 5]	A (Corrected mortality 100%)	–	A (Corrected mortality 100%)	A (Control efficacy 100%)
N#CCN1C(=O)N(N=Cc2cccnc2)Cc2cc(C(F)(C(F)(F)F)C(F)(F)F)ccc21 [compound 6]	A (Corrected mortality 100%)	–	A (Corrected mortality 100%)	A (Control efficacy 100%)
O=CN1C(=O)N(N=Cc2cccnc2)Cc2cc(C(F)(C(F)(F)F)C(F)(F)F)ccc21 [compound 7]	A (Corrected mortality 100%)	–	A (Corrected mortality 100%)	A (Control efficacy 100%)
CCC(=O)N1C(=O)N(N=Cc2cccnc2)Cc2cc(C(F)(C(F)(F)F)C(F)(F)F)ccc21 [compound 9]	A (Corrected mortality 100%)	–	A (Corrected mortality 100%)	A (Control efficacy 100%)
CCCC(=O)N1C(=O)N(N=Cc2cccnc2)Cc2cc(C(F)(C(F)(F)F)C(F)(F)F)ccc21 [compound 10]	A (Corrected mortality 100%)	–	A (Corrected mortality 100%)	A (Control efficacy 100%)
CC(C)C(=O)N1C(=O)N(N=Cc2cccnc2)Cc2cc(C(F)(C(F)(F)F)C(F)(F)F)ccc21 [compound 11]	A (Corrected mortality 100%)	–	A (Corrected mortality 100%)	A (Control efficacy 100%)
CCCCC(=O)N1C(=O)N(N=Cc2cccnc2)Cc2cc(C(F)(C(F)(F)F)C(F)(F)F)ccc21 [compound 12]	A (Corrected mortality 100%)	–	A (Corrected mortality 100%)	A (Control efficacy 100%)
CCC(C)C(=O)N1C(=O)N(N=Cc2cccnc2)Cc2cc(C(F)(C(F)(F)F)C(F)(F)F)ccc21 (centres unmarked) [compound 13]	A (Corrected mortality 100%)	–	A (Corrected mortality 100%)	A (Control efficacy 100%)
O=C(C1CC1)N1C(=O)N(N=Cc2cccnc2)Cc2cc(C(F)(C(F)(F)F)C(F)(F)F)ccc21 [compound 14]	A (Corrected mortality 100%)	–	A (Corrected mortality 100%)	A (Control efficacy 100%)
COCC(=O)N1C(=O)N(N=Cc2cccnc2)Cc2cc(C(F)(C(F)(F)F)C(F)(F)F)ccc21 [compound 15]	A (Corrected mortality 100%)	–	A (Corrected mortality 100%)	A (Control efficacy 100%)
COC(=O)N1C(=O)N(N=Cc2cccnc2)Cc2cc(C(F)(C(F)(F)F)C(F)(F)F)ccc21 [compound 16]	A (Corrected mortality 100%)	–	A (Corrected mortality 100%)	A (Control efficacy 100%)
CCOC(=O)N1C(=O)N(N=Cc2cccnc2)Cc2cc(C(F)(C(F)(F)F)C(F)(F)F)ccc21 [compound 17]	A (Corrected mortality 100%)	–	A (Corrected mortality 100%)	A (Control efficacy 100%)
CCCOC(=O)N1C(=O)N(N=Cc2cccnc2)Cc2cc(C(F)(C(F)(F)F)C(F)(F)F)ccc21 [compound 18]	A (Corrected mortality 100%)	–	A (Corrected mortality 100%)	A (Control efficacy 100%)
CC(C)OC(=O)N1C(=O)N(N=Cc2cccnc2)Cc2cc(C(F)(C(F)(F)F)C(F)(F)F)ccc21 [compound 19]	A (Corrected mortality 100%)	–	A (Corrected mortality 100%)	A (Control efficacy 100%)
CCCCOC(=O)N1C(=O)N(N=Cc2cccnc2)Cc2cc(C(F)(C(F)(F)F)C(F)(F)F)ccc21 [compound 20]	A (Corrected mortality 100%)	–	A (Corrected mortality 100%)	A (Control efficacy 100%)
CCC(C)OC(=O)N1C(=O)N(N=Cc2cccnc2)Cc2cc(C(F)(C(F)(F)F)C(F)(F)F)ccc21 (centres unmarked) [compound 21]	A (Corrected mortality 100%)	–	A (Corrected mortality 100%)	A (Control efficacy 100%)
CS(=O)(=O)N1C(=O)N(N=Cc2cccnc2)Cc2cc(C(F)(C(F)(F)F)C(F)(F)F)ccc21 [compound 22]	A (Corrected mortality 100%)	–	A (Corrected mortality 100%)	A (Control efficacy 100%)
CCS(=O)(=O)N1C(=O)N(N=Cc2cccnc2)Cc2cc(C(F)(C(F)(F)F)C(F)(F)F)ccc21 [compound 23]	A (Corrected mortality 100%)	–	A (Corrected mortality 100%)	A (Control efficacy 100%)
O=C(c1ccccc1)N1C(=O)N(N=Cc2cccnc2)Cc2cc(C(F)(C(F)(F)F)C(F)(F)F)ccc21 [compound 24]	A (Corrected mortality 100%)	–	A (Corrected mortality 100%)	A (Control efficacy 100%)
O=C(c1ccccc1C(F)(F)F)N1C(=O)N(N=Cc2cccnc2)Cc2cc(C(F)(C(F)(F)F)C(F)(F)F)ccc21 [compound 25]	A (Corrected mortality 100%)	–	A (Corrected mortality 100%)	A (Control efficacy 100%)
